Values quoted from earlier work in patent US8377888B2, “Method of predicting the clinical response to cisplatin or carboplatin chemotherapeutic treatment” (Pangaea Biotech, S.A., priority 2005, dated 2013).

How the values were obtained:
[1] = test system: non-small cell lung cancer (NSCLC); settings: per arm of randomized study
[2] = test system: MKN74 (14-3-3σ methylation-positive, wild-type p53)
[3] = test system: MKN28 (14-3-3σ methylation-positive, mutated p53)
[4] = test system: 14-3-3σ methylation-negative cell lines; settings: wild-type or mutated p53
[5] = test system: Colon carcinoma cells lacking 14-3-3σ; settings: cells initiate but do not maintain G2 arrest

Molecule | Median survival [1] | Sensitivity to adriamycin [2] | Sensitivity to adriamycin [3] | Sensitivity to adriamycin [4] | Cell fate after adriamycin treatment [5]
paclitaxel/carboplatin | 8.2 months | – | – | – | –
COc1cccc2c1C(=O)c1c(O)c3c(c(O)c1C2=O)C[C@@](O)(C(=O)CO)C[C@@H]3O[C@H]1C[C@H](N)[C@H](O)[C@H](C)O1 [adriamycin] | – | highly sensitive | highly sensitive | resistant | mitotic catastrophe and cell death
